Data: ChEMBL document CHEMBL3817810, “Four new minor brominated indole related alkaloids with antibacterial activities from Laurencia similis” (2016)
In brackets after ≈: the same amount, converted by molar mass.

What was measured:
Format in all cases: functional
[1] = tested on: Bacillus thuringiensis; test: Antibacterial activity against Bacillus thuringiensis by broth microdilution assay
[2] = tested on: Ralstonia solanacearum; test: Antibacterial activity against Ralstonia solanacearum by broth microdilution assay
[3] = tested on: Pseudomonas amygdali pv. lachrymans; test: Antibacterial activity against Pseudomonas lachrymans by broth microdilution assay
[4] = tested on: Bacillus subtilis; test: Antibacterial activity against Bacillus subtilis by broth microdilution assay
[5] = tested on: Staphylococcus aureus; test: Antibacterial activity against Staphylococcus aureus by broth microdilution assay
[6] = tested on: Xanthomonas vesicatoria; test: Antibacterial activity against Xanthomonas vesicatoria by broth microdilution assay
[7] = tested on: Agrobacterium tumefaciens; test: Antibacterial activity against Agrobacterium tumefaciens by broth microdilution assay

SMILES	MIC [1] [µg/mL]	MIC [2] [µg/mL]	MIC [3] [µg/mL]	MIC [4] [µg/mL]	MIC [5] [µg/mL]	MIC [6] [µg/mL]	MIC [7] [µg/mL]
Cc1cc(C)c2[nH]c3cc(Br)c(Br)cc3c2c1	> 250	> 250	> 250	> 250	> 250	50 (≈ 142 µM)	> 250
Oc1ccc(Cc2c(Br)[nH]c3cc(Br)c(Br)cc23)cc1Br	8 (≈ 14.8 µM)	4 (≈ 7.42 µM)	8 (≈ 14.8 µM)	8 (≈ 14.8 µM)	2 (≈ 3.71 µM)	8 (≈ 14.8 µM)	4 (≈ 7.42 µM)
COC(=O)Nc1cc(Br)c(Br)cc1C(=O)OC	> 250	> 250	> 250	> 250	> 250	> 250	> 250
CC(C)=C1C(=O)N(O)c2cc(Br)c(Br)cc21	50 (≈ 144 µM)	50 (≈ 144 µM)	50 (≈ 144 µM)	50 (≈ 144 µM)	12.5 (≈ 36 µM)	> 250	12.5 (≈ 36 µM)
CC1(C)S[C@@H]2[C@H](NC(=O)Cc3ccccc3)C(=O)N2[C@H]1C(=O)O [PENICILLIN G]	64 (≈ 191 µM)	250 (≈ 748 µM)	250 (≈ 748 µM)	0.125 (≈ 0.374 µM)	0.25 (≈ 0.748 µM)	250 (≈ 748 µM)	250 (≈ 748 µM)
